The text below walks through data of patent publication US12435025B2, “Triphenylphosphonium-tethered salicylamine derivatives” (MTI BIOTECH, INC., priority 2019, dated 2025).

Like-named read-outs stand apart in the source and are kept apart here.

The nature of data set [1]: Single ascending dose study: safety and tolerability (adverse events, ECG, vital signs, laboratory parameters). The class given is in vivo, human. The source says:
(§1) Healthy male and non-pregnant female volunteers over 18 years of age were eligible to participate. Subjects were not permitted to take any medications 2 weeks prior to or during the study. Exclusion criteria included known cardiac, kidney, or hepatic disease; presence of diseases that could manifest morbidity or symptoms/signs that could confound interpretation of the study results; the need to discontinue any drug administered as standard of care treatment; and the unwillingness or inability to use approved birth-control methods.
(§2) This study was an open-label, single ascending dose study designed to assess pharmacokinetics, safety, and tolerability of single doses of 2-hydroxybenzylamine acetate. A 3+3 clinical trial design with a modified Fibonacci sequence dosing scheme^14 was used with a starting dose of 50 mg; thereafter, dosages were increased to 100, 200, 330, 550, and 825 mg. These doses of 2-hydroxybenzylamine acetate correspond to 34, 68, 136, 224, 373, and 560 mg 2-hydroxybenzylamine. Each dose escalation was initiated only after reviewing safety data from all subjects receiving the previous dose.
(§3) Subjects were admitted to the Vanderbilt University Clinical Research Center and remained on the unit for 24 hours after administering 2-hydroxybenzylamine acetate orally in capsules to participants. […] Subjects were monitored at protocol-defined intervals for 24 hours after administration of 2-hydroxybenzylamine. Safety assessments included vital signs (heart rate, respiration rate, blood pressure, and SpO2), clinical laboratory parameters (blood biochemistry, hematology, and urinalysis), 12-lead ECGs, and potential adverse event assessments. All adverse events were recorded, regardless of whether they were considered study-related.

Data set [2] concerns HepG2 cells. Particulars: cited from earlier work.
The conditions of data set [3]: mice, drinking water, 1 to 10 grams per liter; cited from earlier work.
Data set [4] has as its system γKA protein adducts. Particulars: compared with PM; cited from earlier work.
Data set [5] concerns paws injected with carrageenan. Particulars: mice, intraperitoneally 200 mg/kg; cited from earlier work.
Data set [6] is described as follows: Half-life of SA in the blood. The data set is classed as in vivo. Particulars: estimated.
The subject of data set [7] is sodium channel. Particulars: cited from earlier work.
Data set [8] is described as follows: Single ascending dose study: plasma pharmacokinetics of 2-hydroxybenzylamine. The class given is in vivo, human. Particulars: for Cmax / Tmax / AUC(0-inf) / half-life: both sexes, human, plasma; for AUC(0-inf): read-out: AUC (zero to infinity).
Excerpt: as §1
2-Hydroxybenzylamine (as the acetate salt, CAS 1206675-01-5) was obtained from TSI (China) Co., Ltd. (Shanghai, China). A commercial production lot was used (Lot 16120312). Our laboratory verified the purity of the commercial lot to be >99% via HPLC and NMR spectroscopy. Hard gel capsules (Capsugel, Jiangsu, China) containing 50, 110, and 412.5 mg of 2-hydroxybenzylamine acetate (corresponding to 34, 75, and 281 mg 2-hydroxybenzylamine) were prepared by TSI (China) Co., Ltd. Determinations of average fill weight, uniformity of weight, disintegration, 2-hydroxybenzylamine content, acetate content, and microbial and analytical tests were within all specification limits.
as §2, §3
Blood samples for pharmacokinetic analyses were collected at baseline, 0.25, 0.5, 1, 2, 6, 4, 8, and 24 hours after 2-hydroxybenzylamine acetate administration for all dose levels. The 0.25-hour sample was only collected for dosages≤200 mg, and the 6-h sample was only collected for dosages≥330 mg.
[^2H4]-2-hydroxybenzylamine, prepared by Dr. Venkataraman Amarnath as previously described^11, was used as an internal standard. An internal standard solution (100 ng/mL) of ([^2H4]-2-hydroxybenzylamine was prepared in acetonitrile and added to all standards, quality control samples, and patient samples. Standard and quality control samples of 1 mg/mL 2-hydroxybenzylamine were prepared in water. Eight standard curve samples (5, 10, 20, 100, 200, 1000, 2000, and 5000 ng/mL) were prepared with blank human plasma (Bioreclamation, Westbury, NY). In addition, three quality control samples (15, 300, and 3000 ng/mL) were prepared in blank human plasma. Plasma samples were allowed to thaw at room temperature and then vortexed. Internal standard solution (400 μL) and 100 μL of either plasma, quality controls, or standards were added and mixed in a protein precipitation filter 96-well plate (Phenomenex, Torrance, CA). The solution was eluted into a 96-well plate using a positive pressure manifold and then dried under nitrogen gas at 40° C. The samples were then reconstituted in 97/3 v/v water/acetonitrile with 10 mM ammonium formate for analysis. […]

For data set [9] the following is noted: in vivo; cited from earlier work.
[10] abbreviates: single oral dose 50 mg 2-hydroxybenzylamine acetate, mean, n = 3.
The mark [11] stands for this setting: single oral dose 100 mg 2-hydroxybenzylamine acetate, mean, n = 3.

For `CC(=O)O.NCc1ccccc1O` [2-Hydroxybenzylamine acetate, 2-hydroxybenzylamine acetate], in [1] (both, human, in vivo, 24 h), the Abdominal bloating was 1 n (%), the Any event is on record as 5 n (%), the Frequent urination is recorded as 2 n (%) and the Headache is 1 n (%). Further, in data set [1] (both, human, in vivo, 24 h), the Itchy throat was 1 n (%), the Rash is recorded as 1 n (%) and the Sleepiness is on record as 1 n (%).

As usually defined, the half-life is the time in which the quantity being followed falls by half. By Cmax is commonly meant the peak of the concentration-time curve. Usually Tmax stands for the time at which the peak concentration occurs. `NCc1ccccc1O` [2-hydroxybenzylamine]: the “serious adverse events or deaths” value in [1] (all doses) is recorded as “no serious adverse events or deaths”. Besides, in data set [1] (both, human, in vivo, 24 h), the “participants who reported at least 1 adverse event” value was 28% and the “subjects with frequent urination (most common adverse event)” value was determined as 11%. Also, in data set [1] (in vivo), the “adverse event frequency or severity versus dose” value was “no dose-dependent increase”; the “changes in ECG recordings, vital signs, or laboratory parameters” value is reported as “No clinically significant changes”; the “intensity of adverse events” value is recorded as “mild”; the study-related adverse events result is on record as “No adverse events were determined to be study-related”. The “protection of HepG2 cells from cytotoxicity induced by hydrogen peroxide” value in data set [2] is listed as “protects”. Further, the tissue concentrations in data set [3] was 10 to 500 µM. Also, the “inhibition of γKA protein adducts in cells” value in [4] is given as “significantly better inhibitor of γKA protein adducts in cells than PM”. Besides, the “edema in paws injected with carrageenan” value in data set [5] is “decreased edema”. In [6], the half-life was around 2 h. In data set [7], the “protection of sodium channel function inhibited by γKA or oxidants” value is “protects”. Further, in [8] (setting [10]), the peak level (Cmax) was 90 ng/mL, the Tmax came to 1.33 h, the AUC(0-inf) was 396 ng·h/mL and the AUCextrap was determined as 9.1%. Besides, in [8] (single oral dose 50 mg 2-hydroxybenzylamine acetate, mean, n = 3, read-out: Half-life (converted)), the half-life was 2.04 h. Also, in data set [8] (setting [11]), the Cmax is 156 ng/mL, the Tmax stood at 1.33 h, the AUC(0-inf) amounted to 622 ng·h/mL and the AUCextrap was 11.2%. Further, in data set [8] (single oral dose 100 mg 2-hydroxybenzylamine acetate, mean, n = 3, read-out: Half-life (converted)), the half-life was 2.33 h. The half-life in data set [8] (single oral doses, overall mean, read-out: mean half-life (converted)) is 2.1 h. Further, in data set [8] (single oral doses 50-825 mg 2-hydroxybenzylamine acetate), the “Cmax and AUC versus dose” value was “dose-dependent changes”.

Turning to `Cc1ncc(CO)c(CN)c1O` [PM, pyridoxamine], in data set [2], the “protection of HepG2 cells from cytotoxicity induced by hydrogen peroxide” value was “ineffective”.

For the compound `O=C(O)c1ccccc1O` [salicylic acid], in [9], the “salicylate in the blood bound to protein” value was 80-90%.
